Results taken from patent US20080220031A1, “Dermocosmetic Preparations” (BASF Aktiengesellschaft, priority 2005, published 2008).

Test: Oxidation test squalene test (Raman, azo initiator V65)
Details: 2500 ppm test substance, azo initiator V65, 30 days at 40° C., squalene content by Raman spectrum
Procedure: 3 ml of a 2% strength solution of the azo initiator V65 (from Wako) are introduced together with 2500 ppm of test substance (based on the squalene solution) into 12×100 […] Fiolax test tubes and thoroughly mixed using a laboratory shaker. The samples are then stored open in a through-circulation drying oven for 30 days at 40° C. At intervals of 7 days, the squalene content of the samples is determined by means of the Raman spectrum and chemometric evaluation. The datapoints are documented in an XY graph and the efficiency of the test substance is determined from the slope of the decomposition curves in comparison with a reference sample without test substance. The slope of the reference sample divided by the slope of the test substance sample gives the factor Q_Raman.

**Q.** With O=C1O[C@H]([C@@H](O)CO)C(O)=C1O [Ascorbic acid] as the compound, how does the “Qraman (slope of reference sample divided by slope of test substance sample)” value read?
**A.** 1.2

**Q.** Which “Qraman (slope of reference sample divided by slope of test substance sample)” value does the source give for CCCCCCCCCCCCC1CC(=O)N(C2CC(C)(C)N(C)C(C)(C)C2)C1=O (stereo not drawn) here?
**A.** 6.2

**Q.** Which “Qraman (slope of reference sample divided by slope of test substance sample)” value does the source give for CC1(C)CC(N2CN3C(=O)N4CN(C5CC(C)(C)NC(C)(C)C5)CN5C(=O)N(C2)C3C45)CC(C)(C)N1 here?
**A.** 1.3

**Q.** With CCCCCCCCCCCCC1CC(=O)N(C2CC(C)(C)NC(C)(C)C2)C1=O (stereo not drawn) [drawing 31] as the compound, how does the “Qraman (slope of reference sample divided by slope of test substance sample)” value read?
**A.** 7.1

**Q.** For CN1C(C)(C)CC(N2CN3C(=O)N4CN(C5CC(C)(C)N(C)C(C)(C)C5)CN5C(=O)N(C2)C3C45)CC1(C)C, which “Qraman (slope of reference sample divided by slope of test substance sample)” value is on record?
**A.** 2.2

**Q.** Which “Qraman (slope of reference sample divided by slope of test substance sample)” value does the source give for CC(ON1C(C)(C)CC(O)CC1(C)C)c1ccccc1 (stereo not drawn) here?
**A.** 1.3

**Q.** Which “Qraman (slope of reference sample divided by slope of test substance sample)” value does the source give for CCCCCCCCON1C(C)(C)CC(OC(=O)CCCCCCCCC(=O)OC2CC(C)(C)N(OCCCCCCCC)C(C)(C)C2)CC1(C)C [Tinuvin 123] here?
**A.** 1.8

**Q.** With Tocopherol as the compound, how does the “Qraman (slope of reference sample divided by slope of test substance sample)” value read?
**A.** 1.4

**Q.** Which “Qraman (slope of reference sample divided by slope of test substance sample)” value does the source give for COC(=O)C(CO)ON1C(C)(C)CC(OC)CC1(C)C (stereo not drawn) here?
**A.** 1.8

**Q.** For CCCCN(c1nc(NCCCN(CCN(CCCNc2nc(N(CCCC)C3CC(C)(C)N(C)C(C)(C)C3)nc(N(CCCC)C3CC(C)(C)N(C)C(C)(C)C3)n2)c2nc(N(CCCC)C3CC(C)(C)N(C)C(C)(C)C3)nc(N(CCCC)C3CC(C)(C)N(C)C(C)(C)C3)n2)c2nc(N(CCCC)C3CC(C)(C)N(C)C(C)(C)C3)nc(N(CCCC)C3CC(C)(C)N(C)C(C)(C)C3)n2)nc(N(CCCC)C2CC(C)(C)N(C)C(C)(C)C2)n1)C1CC(C)(C)N(C)C(C)(C)C1, which “Qraman (slope of reference sample divided by slope of test substance sample)” value is on record?
**A.** 1.4

**Q.** For CN1C(C)(C)CC(N(C=O)CCCCCCN(C=O)C2CC(C)(C)N(C)C(C)(C)C2)CC1(C)C, which “Qraman (slope of reference sample divided by slope of test substance sample)” value is on record?
**A.** 2.4

Test: Solubility of various HAS compounds in Miglyol 812
Type: physicochemical
Details: introduced in portions into 10 g of Miglyol, stirred at room temperature
Description: Experimental procedure: The respective MS compound was introduced gradually in small portions into 10 g of Miglyol and in each case stirred at room temperature until it had completely dissolved.

**Q.** Which “Solubility in Miglyol 812” value does the source give for CC1(C)CC(OC(=O)CCCCCCCCC(=O)OC2CC(C)(C)NC(C)(C)C2)CC(C)(C)N1 [Tinuvin ® 770] here?
**A.** 4.7%

**Q.** With CC1(C)CC(N(C=O)CCCCCCN(C=O)C2CC(C)(C)NC(C)(C)C2)CC(C)(C)N1 [Uvinul ® 4050H] as the compound, how does the “Solubility in Miglyol 812” value read?
**A.** insoluble

**Q.** For CCCCCCCCCCCCC1CC(=O)N(C2CC(C)(C)NC(C)(C)C2)C1=O (stereo not drawn) [2-Dodecyl-N-(2,2,6,6-tetramethyl-4-piperidinyl)succinimide], which “Solubility in Miglyol 812” value is on record?
**A.** min. 50%

Test: not given
Details: footnotes 2-4: BASF Technical Information / H. Zweifel; cited from earlier work

**Q.** With CC1(C)CC(N2CN3C(=O)N4CN(C5CC(C)(C)NC(C)(C)C5)CN5C(=O)N(C2)C3C45)CC(C)(C)N1 as the compound, how does the pKa read?
**A.** 9.8^2)
